Results: PubChem BioAssay (NCI)
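Following 48 hours of exposure in 96-well plates, responses at five concentrations were used to interpolate endpoints linearly. TGI: concentration producing complete growth inhibition.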

Experiments:
Test in all cases: NCI anticancer screen, dose series, 48 h
HT29 colon = tested on: HT29 colon
SNB-75 CNS = tested on: SNB-75 CNS
HCT-116 colon = tested on: HCT-116 colon
OVCAR-3 ovarian = tested on: OVCAR-3 ovarian
OVCAR-5 ovarian = tested on: OVCAR-5 ovarian
NCI-H460 lung = tested on: NCI-H460 lung
UACC-257 melanoma = tested on: UACC-257 melanoma
OVCAR-4 ovarian = tested on: OVCAR-4 ovarian
HOP-62 NSCLC = tested on: HOP-62 NSCLC
MDA-MB-435 = tested on: MDA-MB-435
DU-145 prostate = tested on: DU-145 prostate

| Compound | TGI (HT29 colon) | TGI (SNB-75 CNS) | TGI (HCT-116 colon) | TGI (OVCAR-3 ovarian) | TGI (OVCAR-5 ovarian) | TGI (NCI-H460 lung) | TGI (UACC-257 melanoma) | TGI (OVCAR-4 ovarian) | TGI (HOP-62 NSCLC) | TGI (MDA-MB-435) | TGI (DU-145 prostate) |
| --- | --- | --- | --- | --- | --- | --- | --- | --- | --- | --- | --- |
| CCCCCCc1cn([C@H]2C[C@H](O)[C@@H](CO)O2)c(=O)[nH]c1=O | > 100 µM | > 100 µM | > 100 µM | > 100 µM | > 100 µM | > 100 µM | > 100 µM | > 100 µM | – | – | – |
| CCOC(=O)c1cc(-c2ccn(C(C)=O)c2)c(-c2cc(C)co2)[nH]1 | – | > 100 µM | > 100 µM | > 100 µM | > 100 µM | > 100 µM | > 100 µM | > 100 µM | > 100 µM | > 100 µM | > 100 µM |
| O=C1OC(c2ccccc2)=N/C1=C/N1CCCC1C(=O)O (configuration not stated) | > 100 µM | > 100 µM | > 100 µM | > 100 µM | > 100 µM | > 100 µM | > 100 µM | > 100 µM | > 100 µM | – | – |
| C=C1C(=O)O[C@H]2C/C(C=O)=C\[C@H]3O[C@H]3/C(COC(=O)C(C)C)=C/CC12 (some centres not stated) | 12.8 µM | – | 10.1 µM | 19.3 µM | 7.48 µM | 26.8 µM | 28.4 µM | – | 26.5 µM | 18.9 µM | 25.2 µM |
| Cc1nnc2sc(-c3ccc([N+](=O)[O-])o3)nn12 | 34.7 µM | – | 20.7 µM | 25.4 µM | 36.7 µM | 49.4 µM | 26.8 µM | 30.7 µM | 28.5 µM | 17.5 µM | 29.8 µM |
| O=c1/c(=C/c2ccc(-c3ccc(Cl)cc3Cl)o2)sc2n1[C@@H](c1ccc3c(c1)OCO3)C=C(c1cc(F)c(Cl)cc1Cl)N=2 | 74.7 µM | > 100 µM | > 100 µM | – | > 100 µM | > 100 µM | 71.1 µM | > 100 µM | 28.9 µM | > 100 µM | > 100 µM |
| CCOC(=O)c1cn(C)nc1N/C(C)=C\C(=O)c1ccccc1 | > 100 µM | – | – | > 100 µM | > 100 µM | > 100 µM | > 100 µM | > 100 µM | > 100 µM | > 100 µM | > 100 µM |
| COC(=O)c1c(C#C[Si](C)(C)C)c(C#C[Si](C)(C)C)c(C#C[Si](C)(C)C)c(C#C[Si](C)(C)C)c1C(=O)OC | > 100 µM | > 100 µM | > 100 µM | > 100 µM | > 100 µM | > 100 µM | > 100 µM | > 100 µM | – | > 100 µM | > 100 µM |
| CC(=O)O[C@H]1C(=O)[C@@]2(C)C(C(OC(=O)c3ccccc3)[C@]3(O)CC(OC(=O)C(O)C(NC(=O)c4ccccc4)c4ccc(C)cc4)C(C)=C1C3(C)C)[C@]1(OC(C)=O)CO[C@@H]1C[C@@H]2O (some centres not stated) | 0.0861 µM | 1.31 µM | 4.75 µM | – | 0.237 µM | > 25 µM | > 25 µM | > 25 µM | 24.1 µM | – | – |
| Cc1ccc2c(=O)c(C(=O)N(CCO)CCO)c[nH]c2n1 | > 100 µM | – | > 100 µM | > 100 µM | > 100 µM | > 100 µM | > 100 µM | > 100 µM | > 100 µM | > 100 µM | > 100 µM |
| O=C(O)CCCc1ccc2c(c1)CC1(C2)Cc2ccc(CCCC(=O)O)cc2C1 | > 100 µM | – | > 100 µM | > 100 µM | > 100 µM | – | > 100 µM | > 100 µM | > 100 µM | > 100 µM | – |
| CC1(C)N=C(N)N=C(N)N1c1ccc(OCCCOc2ccccc2)c(Cl)c1 | 10.5 µM | 17.3 µM | 13.5 µM | 14 µM | 10.4 µM | 12.4 µM | 15.1 µM | 14.2 µM | – | – | – |
| CN(C)c1ccc(/C=C2\C[C@H]3[C@@H]4CCc5cc(O)ccc5[C@H]4CC[C@]3(C)C2=O)cc1 | > 100 µM | > 100 µM | – | > 100 µM | > 100 µM | > 100 µM | > 100 µM | > 100 µM | > 100 µM | > 100 µM | > 100 µM |
| COc1cccc2c1[C@]1(O)C(O)CCCC21 (some centres not stated) | > 100 µM | > 100 µM | > 100 µM | > 100 µM | > 100 µM | > 100 µM | > 100 µM | > 100 µM | > 100 µM | – | – |
| O=C(/C=C/c1ccccc1)CCc1c(O)c2ccccc2oc1=O | > 100 µM | > 100 µM | > 100 µM | > 100 µM | > 100 µM | > 100 µM | > 100 µM | > 100 µM | – | > 100 µM | > 100 µM |
| c1ccc(CNc2ncnc3n[nH]nc23)cc1 | > 100 µM | > 100 µM | > 100 µM | > 100 µM | > 100 µM | – | > 100 µM | > 100 µM | > 100 µM | > 100 µM | > 100 µM |
| COc1ccc(NS(=O)c2cccc(C)c2)cc1 (configuration not stated) | > 100 µM | > 100 µM | > 100 µM | > 100 µM | > 100 µM | > 100 µM | > 100 µM | – | > 100 µM | > 100 µM | > 100 µM |
| COc1cc(S(=O)(=O)N/N=C/c2cc(Br)c(O)c(OC)c2)c(OC)cc1NC(C)=O | > 100 µM | > 100 µM | > 100 µM | > 100 µM | > 100 µM | – | > 100 µM | > 100 µM | > 100 µM | > 100 µM | > 100 µM |
| O=C1OC2C=CC1C1(CCOC1=O)C2 (configuration not stated) | – | > 100 µM | > 100 µM | > 100 µM | > 100 µM | > 100 µM | > 100 µM | > 100 µM | > 100 µM | – | – |
| CN(C)C=Nc1nncc2n[nH]nc12 | > 100 µM | > 100 µM | > 100 µM | > 100 µM | > 100 µM | > 100 µM | > 100 µM | – | > 100 µM | > 100 µM | > 100 µM |
| CC1(C)CC2(C)OC(=N)C1(C#N)C2(C#N)C#N (configuration not stated) | 13.4 µM | – | 20.1 µM | – | 27.3 µM | – | 19.9 µM | – | – | 33.3 µM | 27.7 µM |
| Cc1cccc(C(O)c2cccnc2)c1O (configuration not stated) | > 100 µM | > 100 µM | > 100 µM | > 100 µM | > 100 µM | > 100 µM | > 100 µM | – | > 100 µM | > 100 µM | > 100 µM |
